Data taken from patent US20260217656A1, “Compounds Affecting KRAS” (UNIVERSITAT DE BARCELONA, priority 2022, published 2026).

Columns and labels:
[1] = tested on: ERK and AKT in hTERT-RPE cells; experiment: Western blot of AKT and ERK activation in serum-starved hTERT-RPE cells; format: cell-based, human; conditions: 100 μM
Text: DLD-1 (KRASWT/G13D) (clone V15, #HD PAR-086) colorectal adenocarcinoma cell line and DLD-1 knockout of mutant KRAS allele, DLD-1 KO (KRASWT/−) (clone DWT7, #HD105-002), were obtained from Horizon Discovery Ltd. (Cambridge, UK). hTERT-RPE (KRASWT/WT) immortalized retinal pigment epithelial human cell line was obtained from the […] (ATCC). DLD-1 KO cells stably expressing HA-KRAS G12V were previously generated in our laboratory (Cabot et al., 2021). All cells were grown in DMEM-HAM s F12 (1:1) supplemented with 10% foetal bovine serum (Biological Industries, Israel), penicillin, streptomycin, and nonessential amino acids. […]
For analysis of RAS signalling, cells were lysed in a buffer containing 67 mM Tris-HCl pH 6.8 and 2% SDS and then the samples were heated at 97° C. for 15 minutes. Protein concentration of the lysates was assessed using the Lowry method. […]
Comparison of Ras signaling between DLD-1, DLD-1-KO and hTERT-RPE cells treated with P14B since important differences were observed between the viability of cells treated with P14B depending on their expression or lack of expression of oncogenic KRAS, we further studied whether these discrepancies were reflected also in KRAS downstream signaling. Serum-starved cells (0.1% FCS) were treated with P14B (100 μM) and activation of AKT and ERK was evaluated by WB. […]

[2] = target: T1, GST-KRAS-G12V binding to CaM (Homo sapiens, UniProt P01116, G12V); experiment: CaM-sepharose pulldown competition assay; conditions: increasing concentrations of P14B
T1 construct: recombinant GTP-loaded GST-KRAS-G12V (1-166) with CaM-sepharose beads; made in house; host or cells: Escherichia coli BCI21 (so in the source)
Method: […] of recombinant GST-KRAS (1-166) (GTP loaded) and 12.5 I of CaM-sepharose beads (Cytiva; Merck) (previously washed with pull-down buffer (PDB) containing 50 mM Tris-HCl, pH 7.5, 150 mM NaCl, 0.1% (v/v) Triton X-100) were incubated in the presence of 1 mM CaCl2 or 5 mM EGTA (in a total volume of 100 I with PDB) for 60 minutes at room temperature. The unbound fraction was collected by centrifugation, and the bound fraction was washed four times with PDB with either CaCl2 or EGTA. The entire bound fraction was analysed by WB.
GST-KRAS (1-166) fusion protein was expressed in Escherichia coli BCI21 and then purified and loaded with the specific nucleotide as previously described (Villalonga et al., 2001).
To confirm the direct interaction between KRAS and P14B, surface plasmon resonance analysis was performed. Purified GST-KRAS (aminoacids 1 to 166) was immobilized and then GTP loaded. […] Given that P14B is able to bind to oncogenic KRAS (FIG. 4) most likely via the same surface that KRAS uses to interact with CaM, we analyzed the possibility that P14B can displace CaM from oncogenic KRAS. To this end, we performed an in vitro competence assay that consisted of pulling-down recombinant GTP-loaded GST-KRAS-G12V (1-166) with CaM-sepharose beads followed by incubation with increasing concentrations of P14B.

[3] = target: T2, HA-KRAS-G12V interaction with BRAF, C-RAF/P-C-RAF, ARAF (Homo sapiens, UniProt P01116, G12V); experiment: Co-immunoprecipitation of HA-KRASG12V with RAF family members; format: cell-based; conditions: 10 min treatment, 100 μM
T2 construct: expressed in transfected cells; host or cells: DLD-1 KO (KRAS WT/-) clone DWT7 cells stably expressing HA-KRAS G12V
Method: DLD-1 KO cells stably expressing HA-KRAS G12V were serum starved for the next 24 hours before treatment with the compounds for the times indicated. Next, an IP with anti-HA antibody crosslinked to agarose beads (clone HA-7, Sigma-Aldrich A20956) was performed as previously described (Cabot et al, Oncogene 2021).
We assessed the possibility that P14B favors RAS-effector binding and consequently increases downstream RAS signaling. To this end, co-immunoprecipitation experiments were carried out to analyze the interaction of KRAS with different RAF family members upon P14B treatment. The interaction was analyzed after 10 min of P14B treatment since P—C-RAF and P-MEK were observed after 15 min (FIG. 3C). DLD-1 cells stably expressing HA-KRAS-G12V were serum-starved and then treated for 10 min with either EGF or P14B.

COc1ccc(C(c2c(C)n[nH]c2O)c2c(C)n[nH]c2O)cc1Oc1ccc([N+](=O)[O-])cc1 [Example P14B]
AKT and ERK phosphorylation [1]: no significant increase
Ca+2-dependent GST-KRAS-G12V binding to CaM [2]: reduced
KRAS-ARAF binding [3]: No differences
P-C-RAF co-immunoprecipitated with KRAS ([3]; serum-starved cells): increased the levels of P—C-RAF co-immunoprecipitated with KRAS
KRAS-BRAF interaction ([3]; with respect to non-treated cells): increase in the KRAS-BRAF interaction
